According to US20220267260A1, “COMPOUNDS CONTAINING A SULFONIC GROUP AS KAT INHIBITORS” (Epizyme, Inc., priority 2016, published 2022):

Columns and labels:
KAT6A = target: T1, KAT6A (Homo sapiens, UniProt Q92794); test: KAT6A enzyme inhibition assay (SAMDI mass spectrometry); type: biochemical; conditions: His-TEV-KAT6A 501-784 enzyme construct
T1 construct: His-TEV tag (N, cleaved yes); made in house

KAT5 = target: T2, KAT5 (Homo sapiens, UniProt Q92993); test: KAT5 enzyme inhibition assay (SAMDI mass spectrometry); type: biochemical; conditions: His-TEV-FL KAT5-Flag enzyme construct
T2 construct: His-TEV tag (N, cleaved yes); made in house
T2 sequence (Q92993 with tags, fused parts or gaps): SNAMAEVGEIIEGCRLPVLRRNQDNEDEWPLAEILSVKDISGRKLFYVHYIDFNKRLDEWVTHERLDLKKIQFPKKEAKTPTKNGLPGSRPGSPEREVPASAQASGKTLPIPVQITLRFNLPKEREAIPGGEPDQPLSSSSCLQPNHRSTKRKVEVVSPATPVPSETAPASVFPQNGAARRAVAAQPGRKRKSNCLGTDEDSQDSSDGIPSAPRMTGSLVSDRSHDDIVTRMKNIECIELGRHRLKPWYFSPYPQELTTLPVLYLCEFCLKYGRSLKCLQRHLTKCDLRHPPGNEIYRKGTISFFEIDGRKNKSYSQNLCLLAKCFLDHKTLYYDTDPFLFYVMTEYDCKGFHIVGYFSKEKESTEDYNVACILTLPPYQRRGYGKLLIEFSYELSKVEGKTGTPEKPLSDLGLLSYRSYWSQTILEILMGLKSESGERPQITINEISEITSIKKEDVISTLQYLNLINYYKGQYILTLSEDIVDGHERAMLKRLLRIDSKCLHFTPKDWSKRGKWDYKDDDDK

T1 sequence (Q92794 with tags, fused parts or gaps): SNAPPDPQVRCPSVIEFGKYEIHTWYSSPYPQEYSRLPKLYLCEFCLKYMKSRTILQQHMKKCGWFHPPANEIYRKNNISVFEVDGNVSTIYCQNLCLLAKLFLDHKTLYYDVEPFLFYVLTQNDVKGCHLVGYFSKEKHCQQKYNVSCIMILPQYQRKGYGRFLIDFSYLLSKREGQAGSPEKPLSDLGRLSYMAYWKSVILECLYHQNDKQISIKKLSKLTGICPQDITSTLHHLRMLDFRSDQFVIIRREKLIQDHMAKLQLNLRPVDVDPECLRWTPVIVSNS

| IC50 (KAT6A) [µM] | IC50 (KAT5) [µM] | SMILES |
| --- | --- | --- |
| 10 to 50 | 50 to 100 | Cc1cc(-c2ccccc2)cc(C(=O)NNS(C)(=O)=O)c1F [Compound I-1] |
| 10 to 50 | 10 to 50 | CCS(=O)(=O)NNC(=O)c1cc(-c2ccccc2)cc(C)c1F [Compound I-2] |
| 50 to 100 | 10 to 50 | Cc1cc(-c2ccccc2)cc(C(=O)NNS(=O)(=O)C(C)C)c1F [Compound I-3] |
| 50 to 100 | 50 to 100 | Cc1cc(-c2ccccc2)cc(C(=O)NNS(=O)(=O)C2CC2)c1F [Compound I-4] |
| ≤ 10 | ≤ 10 | Cc1cc(-c2ccccc2)cc(C(=O)NNS(=O)(=O)Cc2cccc(Cl)c2)c1F [Compound I-5] |
| ≤ 10 | ≤ 10 | Cc1cc(-c2ccccc2)cc(C(=O)NNS(=O)(=O)Cc2ccc(Cl)cc2)c1F [Compound I-6] |
| 10 to 50 | 10 to 50 | Cc1cc(-c2ccccc2)cc(C(=O)NNS(=O)(=O)C2CCC2)c1F [Compound I-7] |
| ≤ 10 | ≤ 10 | Cc1cc(-c2ccccc2)cc(C(=O)NNS(=O)(=O)Cc2ccccc2Cl)c1F [Compound I-8] |
| ≤ 10 | ≤ 10 | Cc1cc(-c2ccccc2)cc(C(=O)NNS(=O)(=O)Cc2ccccc2)c1F [Compound I-9] |
| > 100 | > 100 | O=C(NNS(=O)(=O)c1ccccc1)c1c(F)ccc(-c2ccccc2)c1F [Compound I-10] |
| > 100 | > 100 | O=S(=O)(NNc1nc2ccccc2[nH]1)c1ccccc1 [Compound I-12] |
| > 100 | > 100 | Cn1c(NNS(=O)(=O)c2ccccc2)nc2ccccc21 [Compound I-13] |
| 10 to 50 | 10 to 50 | O=C(NNS(=O)(=O)c1ccccc1)c1cc(-c2ccccc2)cc2cc[nH]c12 [Compound I-14] |
| > 100 | > 100 | CC1CCCC(C)N1C(=O)NNS(=O)(=O)c1ccccc1 (centres unmarked) [Compound I-15] |
| 50 to 100 | > 100 | O=C(NNS(=O)(=O)c1ccccc1)c1cc(-c2ccccc2)cc2[nH]ccc12 [Compound I-16] |
| > 100 | 50 to 100 | Cn1ccc2c(C(=O)NNS(=O)(=O)c3ccccc3)cc(-c3ccccc3)cc21 [Compound I-17] |
| ≤ 10 | ≤ 10 | Cc1cc(-c2ccccc2)cc(C(=O)NNS(=O)(=O)C2CCCCC2)c1F [Compound I-18] |
| 10 to 50 | ≤ 10 | Cc1cc(-c2ccccc2)cc(C(=O)NNS(=O)(=O)C2CCCC2)c1F [Compound I-19] |
| > 100 | > 100 | Cn1ncc2c(C(=O)NNS(=O)(=O)c3ccccc3)cc(-c3ccccc3)cc21 [Compound I-20] |
| > 100 | > 100 | Cc1cc(-c2ccccc2)cc(C(=O)NNS(=O)(=O)C(C)(C)C)c1F [Compound I-21] |
| 10 to 50 | 10 to 50 | COc1ccccc1CN1CC(S(=O)(=O)NNC(=O)c2cc(-c3ccccc3)cc(C)c2F)C1 [Compound I-22, N′-(4-fluoro-5-methyl-[1,1′-biphenyl]-3-carbonyl)-1-(2-methoxybenzyl)azetidine-3-sulfonohydrazide] |
| 10 to 50 | 10 to 50 | Cc1cc(-c2ccccc2)cc(C(=O)NNS(=O)(=O)C2CCNC2)c1F (centres unmarked) [Compound I-23] |
| 10 to 50 | 10 to 50 | Cc1cc(-c2ccccc2)cc(C(=O)NNS(=O)(=O)C2CCN(Cc3ccc(Cl)cc3)C2)c1F (centres unmarked) [Compound I-24] |
| 10 to 50 | 10 to 50 | COc1ccccc1CN1CCC(S(=O)(=O)NNC(=O)c2cc(-c3ccccc3)cc(C)c2F)C1 (centres unmarked) [Compound I-25] |

| IC50 (KAT6A) [µM] | IC50 (KAT5) [µM] | SMILES |
| --- | --- | --- |
| ≤ 10 | ≤ 10 | COc1cccc(CN2CCC(S(=O)(=O)NNC(=O)c3cc(-c4ccccc4)cc(C)c3F)C2)c1 (centres unmarked) [Compound I-26] |
| 10 to 50 | 10 to 50 | COc1ccc(CN2CCC(S(=O)(=O)NNC(=O)c3cc(-c4ccccc4)cc(C)c3F)C2)cc1 (centres unmarked) [Compound I-27] |
| > 100 | > 100 | Cc1cc(-c2ccccc2)cc(C(=O)NNS(=O)(=O)C2CN(Cc3cccc(Cl)c3)C2)c1F [Compound I-28] |
| ≤ 10 | ≤ 10 | Cc1cc(-c2ccccc2)cc(C(=O)NNS(=O)(=O)C2CCN(Cc3ccccc3Cl)C2)c1F (centres unmarked) [Compound I-29] |
| 10 to 50 | 10 to 50 | Cc1cc(-c2ccccc2)cc(C(=O)NNS(=O)(=O)C2CCN(Cc3cccc(Cl)c3)C2)c1F (centres unmarked) [Compound I-30] |
| 10 to 50 | 50 to 100 | Cc1cc(-c2ccccc2)cc(C(=O)NNS(=O)(=O)C2CCN(C)C2)c1F (centres unmarked) [Compound I-31] |
| ≤ 10 | 10 to 50 | Cc1cc(-c2ccccc2)cc(C(=O)NNS(=O)(=O)C2CCN(C(=O)c3ccccc3)C2)c1F (centres unmarked) [Compound I-32] |
| 10 to 50 | 10 to 50 | Cc1cc(-c2ccccc2)cc(C(=O)NNS(=O)(=O)C2CCN(Cc3ccccc3)C2)c1F (centres unmarked) [Compound I-33] |
| 10 to 50 | 10 to 50 | Cc1cc(-c2ccccc2)cc(C(=O)NNS(=O)(=O)C2CN(C(=O)c3ccccc3)C2)c1F [Compound I-34] |
| 10 to 50 | 10 to 50 | Cc1cc(-c2ccccc2)cc(C(=O)NNS(=O)(=O)C2CCN(CCc3ccccc3)C2)c1F (centres unmarked) [Compound I-36] |
| 10 to 50 | 10 to 50 | Cc1cc(-c2ccccc2)cc(C(=O)NNS(=O)(=O)C2CN(Cc3ccccc3Cl)C2)c1F [Compound I-37] |
| > 100 | 10 to 50 | Cc1cccc(C(=O)NNS(=O)(=O)Cc2ccccc2)c1F [Compound I-39] |
| 10 to 50 | 50 to 100 | CC(=O)N1CC(S(=O)(=O)NNC(=O)c2cc(-c3ccccc3)cc(C)c2F)C1 [Compound I-40] |
| 10 to 50 | 50 to 100 | Cc1cc(-c2ccccc2)cc(C(=O)NNS(=O)(=O)C2CN(CCO)C2)c1F [Compound I-42] |
| 10 to 50 | 50 to 100 | COCCN1CC(S(=O)(=O)NNC(=O)c2cc(-c3ccccc3)cc(C)c2F)C1 [Compound I-43] |
| > 100 | > 100 | O=S(=O)(NNc1n[nH]c2ccccc12)c1ccccc1 [Compound I-44] |
| > 100 | > 100 | O=S(=O)(NNc1n[nH]c2cccc(F)c12)c1ccccc1 [Compound I-45] |
| > 100 | > 100 | O=S(=O)(NNc1n[nH]c2ccc(-c3ccccc3)cc12)c1ccccc1 [Compound I-46] |
| > 100 | > 100 | Cn1nc(NNS(=O)(=O)c2ccccc2)c2cc(-c3ccccc3)ccc21 [Compound I-47] |
| > 100 | > 100 | O=S(=O)(NNc1n[nH]c2c(F)cccc12)c1ccccc1 [Compound I-48] |
| > 100 | > 100 | Cn1nc(NNS(=O)(=O)c2ccccc2)c2cccc(-c3ccccc3)c21 [Compound I-49] |
| > 100 | 50 to 100 | O=S(=O)(NNc1n[nH]c2c(-c3ccccc3)cccc12)c1ccccc1 [Compound I-50] |
| 10 to 50 | 10 to 50 | O=C(NNS(=O)(=O)c1ccccc1)c1cc(-c2ccccc2)cc2[nH]cnc12 [Compound I-53] |
| 10 to 50 | 10 to 50 | Cc1cc(-c2ccccc2)cc(C(=O)NNS(=O)(=O)C2COC2)c1F [Compound I-55] |

| IC50 (KAT6A) [µM] | IC50 (KAT5) [µM] | SMILES |
| --- | --- | --- |
| 10 to 50 | > 100 | Cc1cc(-c2ccccc2)cc(C(=O)NNS(=O)(=O)C2CN(Cc3ccccc3)C2)c1F [Compound I-61] |
| 10 to 50 | > 100 | Cc1cc(-c2ccccc2)cc(C(=O)NNS(=O)(=O)C2CN(CCc3ccccc3)C2)c1F [Compound I-62] |
| > 100 | > 100 | Cc1cc(-c2ccccc2)cc(C(=O)NNS(=O)(=O)C2CN(Cc3ccc(Cl)cc3)C2)c1F [Compound I-63] |
| > 100 | > 100 | O=S(=O)(Nc1ncc(-c2ccccc2F)[nH]1)c1ccccc1 [Compound I-65] |
| > 100 | > 100 | O=S(=O)(Nc1ncc(-c2cc(-c3ccccc3)ccc2F)[nH]1)c1ccccc1 [Compound I-67] |
| > 100 | > 100 | Cc1cc(-c2ccccc2)cc(C(=O)N2CCC(S(=O)(=O)c3ccccc3)C2)c1F (centres unmarked) [Compound I-73] |
| 10 to 50 | 50 to 100 | Cc1cc(-c2ccccc2)cc(C(=O)NCCS(=O)(=O)Nc2ccccc2)c1F [Compound I-75] |
| ≤ 10 | ≤ 10 | COc1ccccc1CS(=O)(=O)NNC(=O)c1cc(-c2ccccc2)cc(C)c1F [Compound I-79] |
| ≤ 10 | ≤ 10 | COc1cccc(CS(=O)(=O)NNC(=O)c2cc(-c3ccccc3)cc(C)c2F)c1 [Compound I-80] |
| 10 to 50 | 50 to 100 | COc1ccc(CS(=O)(=O)NNC(=O)c2cc(-c3ccccc3)cc(C)c2F)cc1 [Compound I-81] |
|  | > 100 | O=C(NNS(=O)(=O)c1ccc2ccccc2c1)c1ccccc1 [Compound I-146] |
|  | ≤ 10 | Cc1cc(-c2ccccc2)cc(C(=O)NNS(=O)(=O)c2ccccc2)c1F [Compound I-157] |
|  | > 100 | O=C(NNS(=O)(=O)c1ccccc1F)c1ccccc1 [Compound I-163] |
|  | > 100 | COc1ccc(S(=O)(=O)NNC(=O)c2ccccc2F)cc1 [Compound I-179] |
|  | > 100 | O=C(NNS(=O)(=O)c1ccccc1)c1ccc(Cl)cc1 [Compound I-181] |
|  | > 100 | COc1cccc(C(=O)NNS(=O)(=O)c2ccccc2)c1 [Compound I-182] |
|  | > 100 | O=C(NNS(=O)(=O)c1ccccc1)c1cccc(F)c1 [Compound I-191] |
|  | > 100 | Cc1cc(-c2ccccc2)cc(C(=O)NNS(=O)(=O)c2cccc(C3CC3)c2)c1F [Compound I-201] |
|  | > 100 | Cc1cc(-c2ccccc2)cc(C(=O)NNS(=O)(=O)c2cccc(C(C)C)c2)c1F [Compound I-218] |
|  | 50 to 100 | O=C(NNS(=O)(=O)c1ccc2ccccc2c1)c1ccccc1F [Compound I-238] |
|  | ≤ 10 | O=C(NNS(=O)(=O)CC1CCOCC1)c1cc(C2CCCO2)cc(Cl)c1F (centres unmarked) [Compound I-506] |
|  | > 100 | CC(C)n1nc(CNC(=O)CNS(=O)(=O)c2ccccc2)c2ccccc21 [Compound I-525] |
